According to patent US10709724B2, “Methods of treating mitochondrial dysfunction” (Ecole Polytechnique Federale de Lausanne (EPFL), priority 2011, dated 2020):
Several values for one entry are separate records, joined by “and”; a condition that tells them apart may be missing. Identical values can stand only once. Entries after “also recorded” stand apart in the source; their conditions may differ.

How the values were obtained:
C. elegans [1] = assay: MitoSox staining of worms (mitochondrial superoxide); format: in vivo; settings: day 3
Method: Briefly, a population of 100 worms was recovered in 1 ml of M9 buffer, washed three times to remove residual bacteria, and resuspended in 200 μl of 1:200 MitoSox stock solution (initial stock solution was dissolved at 1 mM in DMSO). After 20 minutes of treatment, worms were washed five times in 1 ml of M9 buffer to eliminate the MitoSox reagent, and then transferred in a black-walled 96-well plate for reading. Fluorescence produced by the Mitosox reaction was measured as described before.

C. elegans [2] = assay: Worm respiration assay (Seahorse XF24); format: in vivo; settings: day 3 adult worms
Method: Worm Respiration Assays Oxygen consumption was measured using the Seahorse XF24 equipment (Seahorse Bioscience Inc., North Billerica, Mass.) as described in Yamamoto et al. Typically, 200 animals per conditions were recovered from NGM plates with M9 medium, washed three times in 2 mLM9 to eliminate residual bacteria, and resuspended in 500 μL M9 medium. Worms were transferred in 24-well standard Seahorse plates (#100777-004) (50 worms per well) and oxygen consumption was measured 6 times. Respiration rates were normalized to the number of worms in each individual well. NAD measurement by HPLC For NAD+ quantification, approximately 1000 worms were collected in M9 buffer, washed five times to remove residual bacteria and flash-frozen in liquid nitrogen and stored at −80° C. until analysis. Extraction was started by adding 250 μl of 1.6M perchloric acid on frozen samples, followed by extensive homogenization in a Qiagen tissuelyser, and centrifugation at 20.000 g for 15 min. The supernatant was recovered and neutralized with a 3M potassium carbonate solution. After centrifugation, 100 μl of supernatant was filtered and used for NAD measurement using an HPLC system (Agilent) with a Supelco LC-18-T column (Sigma), as described in Yoshino et al. (Yoshino, K. F. Mills, M. J. Yoon, S. Imai, Nicotinamide Mononucleotide, a Key NAD(+) Intermediate, Treats the Pathophysiology of Diet- and Age-Induced Diabetes in Mice. Cell Metab 14, 528 (2011)).

C. elegans [3] = assay: Worm fluorescence analysis (endogenous gut fluorescence/lipofuscin, sod-3::GFP); settings: in vivo
Method: Fluorescence Analysis Quantification of GFP expression and endogenous gut fluorescence were carried out according to the protocol as described in Yamamoto et al. (Yamamoto et al., NCoR1 is a conserved physiological modulator of muscle mass and oxidative function. Cell 147, 827 (2011)). Briefly, GFP was monitored in day 1 or day 3 adults. Fluorimetric assays were performed using a Victor X4 multilabel plate reader (Perkin-Elmer Life Science). Eighty worms were picked at random (20 worms per well of a black-walled 96-well plate) and each well was read four times and averaged. Each experiment was repeated at least three times. Endogenous gut fluorescence was monitored at day 1, day 4 and day 8 by following the same protocol as described before.

C. elegans [4] = assay: Quantitative RT-PCR in worms; format: in vivo
Method: mRNA and mtDNA Analysis. Total RNA was prepared using TRIzol (Invitrogen) according to the manufacturer's instructions. RNA was treated with DNase, and 2 μg of RNA was used for reverse transcription (RT). cDNA was purified on QIAquick PCR cleanup columns (Qiagen, Valencia, Calif., USA). 50× diluted cDNA was used for RT-quantitative PCR (RT-VCR) VCR) reactions (Bai et al., 2007). The RT-qPCR reactions were performed using the Light-Cycler system (Roche Applied Science) and a qPCR Supermix (Qiagen) with the primers for mice summarized in Table 1 and 4, and with the primers for worms summarized on Table 7. mtDNA quantification was performed as described (Lagouge et al., 2006) with the primers indicated in Table 2 and 5.

C. elegans [5] = assay: Worm lifespan analysis; format: in vivo; settings: for variation compared to control (%): vs N2 + water
Method: Worm Lifespan Analysis Lifespan tests were performed as described in Mouchiroud et al (L. Mouchiroud et al., Pyruvate imbalance mediates metabolic reprogramming and mimics lifespan extension by dietary restriction in Caenorhabditis elegans. Aging Cell 10, 39 (2011)). Briefly, 60-100 animals were used per conditions and scored every other day. All lifespan experiments were performed at 20° C. […] Animals were exposed to compounds during the full life from eggs until death. To ensure a permanent exposure to the compound, plates were changed twice a week. All the compounds used in this study were dissolved in a water stock solution.

C. elegans [6] = assay: Confocal microscopy of mitochondria in body wall muscle (pmyo-3::mito::GFP reporter); settings: in vivo
Method: Confocal Microscopy and Image Processing Worms were immobilized with 6 mM solution of tetramisole hydrochloride (Sigma, Buchs, Switzerland) in M9 and mounted on 6% agarose pads on glass slides. Images of worms were acquired using Zeiss LSM 700 Upright confocal microscope (Carl Zeiss AG, Oberkochen, Germany) under non-saturating exposure conditions. All the snapshots were taken from the same part of C. elegans: muscles from the upper part of the worm, excluding the regions of oesophagus and vulva. For each condition multiple worms were observed and imaged. Image processing was performed with the Fiji software. One of the critical issues during the imaging process was the position of the worm, as it influences the level of background. For the uniformity of the represented images, contrast and brightness were adjusted in order, to eliminate the undesirable background signal. Neither of these manipulations was affecting the mitochondrial shape. Tracing of the mitochondrial network contour was done by the use of Gaussian blur filter followed by the application of Laplacian operator.

## O=C(c1cc(Cc2n[nH]c(=O)c3ccccc23)ccc1F)N1CCN(C(=O)C2CC2)CC1 [AZD2281]
C. elegans [1]
  ROS production (mitoSOX): ROS production was decreased
C. elegans [2]
  oxygen consumption (respiration): robustly increased respiration; also recorded: Oxygen consumption was increased
C. elegans [3]
  accumulation of the aging pigment lipofuscin: reduced lipofuscin accumulation; also recorded: decreased the accumulation of the aging pigment lipofuscin
  sod-3::GFP: increase in sod-3::GFP
C. elegans [4]; day 3 of adulthood
  expression of genes of mitochondrial oxidative metabolism (cts-1, cox-4): increased expression of citrate synthase (cts-1) and cytochrome c oxidase subunit 4 (cox-4); also recorded: increased expression of genes involved in mitochondrial oxidative metabolism
C. elegans [4]; in vivo
  daf-16 expression: did not change expression of daf-16
  sod-3 expression: marked induction
C. elegans [5]; 100 nM (FIG. 34B)
  lifespan extension: 22.9%
C. elegans [5]; N2, 100 nM, listed as AZD
  mean lifespan ± SE: 22.8 ± 0.9 days and 24.7 ± 0.669 days and 26.5 ± 0.77 days and 24.5 ± 0.94 days and 24.7 ± 0.55 days
C. elegans [5]; N2, 500 nM
  mean lifespan ± SE: 22.2 ± 1.15 days
  variation compared to control (%): +14.4%
C. elegans [5]; N2, 1000 nM
  mean lifespan ± SE: 21.2 ± 0.96 days
  variation compared to control (%): +9.2%
C. elegans [5]; daf-16(mu86) mutant worms
  lifespan in daf-16 mutant worms: failed to increase lifespan; also recorded: fails to extend lifespan
C. elegans [5]; daf-16(mu86), 100 nM
  mean lifespan ± SE: 18.2 ± 0.76 days
  variation compared to control (%): −16.1%
C. elegans [5]; pme-1(ok988), 100 nM
  mean lifespan ± SE: 26.1 ± 0.78 days
  variation compared to control (%): +31.2%
C. elegans [5]; pme-1 mutant worms
  lifespan of the pme-1 mutant: not further extended; also recorded: pme-1-dependent manner
C. elegans [5]; sir-2.1(ok434) mutant worms
  lifespan in sir-2.1(ok434) mutant / sir-2.1 dependence: lost the AZD2281-induced longevity; also recorded: does not extend lifespan
C. elegans [5]; sir-2.1(ok434), 100 nM
  mean lifespan ± SE: 21.9 ± 0.528 days
  variation compared to control (%): +6.7%
C. elegans [6]
  mitochondrial content in body wall muscle: more dense mitochondrial network
